Experimental data reported in patent US20210070747A1, “2(1H)-QUINOLINONE DERIVATIVE” (priority 2017, published 2021).
≈ marks a conversion by molar mass, not a printed value. Like-named read-outs stand apart in the source and are kept apart here.

Columns and labels:
E. coli DNA gyrase = biological target: T1, E. coli DNA gyrase (Escherichia coli, UniProt P0AES6); experiment: Test for evaluating the activity of inhibiting E. coli DNA gyrase enzyme (Method 2, supercoiling, recombinant gyrA/gyrB complex); format: biochemical
T1 construct: made in house; host or cells: E. coli BL21 (DE3)
Procedure, shortened: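 Recombinant E. coli gyrA/gyrB complex (His-tagged, BL21(DE3)-expressed, Ni-NTA purified; 0.135 nmol/mL final) supercoiled relaxed pBR322 (1 ng/μL) with 0.5 mmol/L ATP in pH 8.0 Tris buffer, 60 min at room temperature. H19 stopped the reaction; supercoiled/relaxed ratio read at 485/535 nm, inhibition curves built from varying compound concentrations.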

E. Coli ATCC 25922 = experiment: Test for evaluating antibacterial activity (E. coli), broth microdilution MIC; format: cell-based; conditions: Escherichia coli, ATCC25922; 35° C., 18 hours, cation-adjusted Mueller-Hinton medium
Procedure, shortened: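 Broth microdilution per modified CLSI method in cation-adjusted Mueller-Hinton medium. Inoculum from overnight heart infusion agar growth, McFarland 0.5 suspension diluted 10-fold; incubation 35° C for 18 hours. MIC taken as lowest drug concentration with no visible growth.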

[1] = system: N. gonorrhoeae ATCC 49226; experiment: Test for evaluating antibacterial activity (N. gonorrhoeae), broth microdilution MIC; format: cell-based; conditions: Neisseria gonorrhoeae, ATCC49226; 35° C., 24 hours, gonococcal broth
Method: Minimum inhibitory concentration (MIC) was measured using the broth microdilution method described below in accordance with a modification of the method of Geers et al. (Antimicrob. Agents. Chemother. (1989), 33, 233-234).
After sterilization, BD. Difco supplement C was added to give a final concentration of 1%, whereby a gonococcal broth was prepared.
Bacterial cells under test were cultured overnight on a chocolate II agar medium, scraped off and suspended at a concentration equivalent to McFarland 0.5 turbidity; the suspension thus obtained was diluted 5 folds to give a liquid inoculum. The inoculum (0.005 mL) was inoculated on a gonococcal broth containing the analyte compound and cultured at 35° C. for 24 hours. A minimum drug concentration at which no bacterial growth was macroscopically visible was designated MIC.

[2] = Method 2, read-out: E. Coli Gyrase supercoiling IC50

| Structure (SMILES) | IC50 (E. coli DNA gyrase; [2]) [nM] | MIC (E. Coli ATCC 25922) [µg/mL] | MIC [1] [µg/mL] | IC50 (E. coli DNA gyrase) [nM] |
| --- | --- | --- | --- | --- |
| CNc1cc(F)cc2c(O)c(C(=O)Nc3cncnc3)c(=O)[nH]c12 [Example 138, 6-fluoro-4-hydroxy-8-(methylamino)-2-oxo-N-(pyrimidine-5-yl)-1,2-dihydroquinoline-3-carboxamide] | 129 | 32 (≈ 97.2 µM) | 0.06 (≈ 0.182 µM) | – |
| CNc1cc(F)cc2cc(C(=O)Nc3ccc(-c4noc(=O)[nH]4)cc3)c(=O)[nH]c12 [Example 144, 6-fluoro-8-(methylamino)-2-oxo-N-[4-(5-oxo-4,5-dihydro-1,2,4-oxadiazole-3-yl)phenyl]-1,2-dihydroquinoline-3-carboxamide] | 0.48 | > 8 | 0.004 (≈ 0.0101 µM) | – |
| CNc1cc(F)cc2cc(C(=O)Nc3ccc(C(=O)NS(C)(=O)=O)cc3)c(=O)[nH]c12 [Example 145, 6-fluoro-N-{4-[(methanesulfonyl)carbamoyl]phenyl}-8-(methylamino)-2-oxo-1,2-dihydroquinoline-3-carboxamide] | 0.19 | > 32 | 0.06 (≈ 0.139 µM) | – |
| CNc1cc(F)cc2c(O)c(C(=O)Nc3ccc(C(=O)NS(C)(=O)=O)cc3)c(=O)[nH]c12 [Example 147, 6-Fluoro-4-hydroxy-N-[4-[(methanesulfonyl)carbamoyl]phenyl]-8-(methylamino)-2-oxo-1,2-dihydroquinoline-3-carboxamide] | 1.75 | > 32 | 0.008 (≈ 0.0178 µM) | – |
| CNc1cc(F)cc2cc(C(=O)Nc3ccc(-c4nnn[nH]4)cc3)c(=O)[nH]c12 [Example 149, 6-fluoro-8-(methylamino)-2-oxo-N-[4-(1H-tetrazole-5-yl)phenyl]-1,2-dihydroquinoline-3-carboxamide] | 0.55 | > 8 | 0.03 (≈ 0.0791 µM) | – |
| CNc1cc(F)cc2c(O)c(C(=O)Nc3ccc(C(=N)N)cc3)c(=O)[nH]c12 [Example 150, N-(4-Carbamimidoylphenyl)-6-fluoro-4-hydroxy-8-(methylamino)-2-oxo-1,2-dihydroquinoline-3-carboxamide] | 89.3 | > 16 | 0.03 (≈ 0.0812 µM) | – |
| CNc1cc(F)cc2cc(C(=O)Nc3ccc(S(C)(=N)=O)cc3)c(=O)[nH]c12 (stereo not drawn) [Example 151, 6-Fluoro-N-[4-(S-methanesulfonimidoyl)phenyl]-8-(methylamino)-2-oxo-1,2-dihydroquinoline-3-carboxamide] | – | > 16 | 0.5 (≈ 1.29 µM) | 21.4 |
| CNc1cc(F)cc2c(O)c(C(=O)Nc3ccc(C(=O)OC)cc3CN3CCCCC3)c(=O)[nH]c12 [Example 152, Methyl 4-[[6-fluoro-4-hydroxy-8-(methylamino)-2-oxo-1,2-dihydroquinoline-3-carbonyl]amino]-3-[(piperidin-1-yl)methyl]benzoate] | 1230 | > 16 | 4 (≈ 8.29 µM) | – |
| CNc1cc(F)cc2cc(C(=O)Nc3ccc(NC(=O)NS(C)(=O)=O)cc3)c(=O)[nH]c12 [Example 154, 6-fluoro-N-(4-{[(methanesulfonyl)carbamoyl]amino}phenyl)-8-(methylamino)-2-oxo-1,2-dihydroquinoline-3-carboxamide] | 9.78 | > 16 | 0.06 (≈ 0.134 µM) | – |
| CNc1cc(F)cc2c(O)c(C(=O)Nc3ccc(C(=O)O)cc3CN3CCOCC3)c(=O)[nH]c12 [Example 155, 4-[[6-Fluoro-4-hydroxy-8-(methylamino)-2-oxo-1,2-dihydroquinoline-3-carbonyl]amino]-3-[(morpholin-4-yl)methyl]benzoic Acid] | 109 | > 32 | 0.015 (≈ 0.0319 µM) | – |
| CNc1cc(F)cc2c(O)c(C(=O)Nc3ccc(C(=O)O)cc3CN3CCC3)c(=O)[nH]c12.O=CO [Example 156, 3-[(azetidine-1-yl)methyl]-4-{[6-fluoro-4-hydroxy-8-(methylamino)-2-oxo-1,2-dihydroquinoline-3-carbonyl]amino}benzoic acid-formate] | – | 32 | 0.5 | 13.4 |
